Calls of active or inactive are those of the source. The rule behind the calls is not given here.
Key:
[1] = Toxicity in BALB/c nude mouse xenografted with human HeLa cells assessed as inflammation in myocardial tissue at 1 mg/kg, ip administered every 2 days for 18 days by H and E staining; format: organism-based, Myocardium/plasma; details: in vivo, 432 h, time 18 day
[2] = Induction of MDR1 gene expression in human HeLa cells by qRT-PCR analysis; format: functional
HeLa [3] = test: Induction of morphological change in human HeLa cells assessed as reduction in size measured after 48 hrs by CCK-8 assay; format: functional, cell-based
HeLa [4] = test: Cytotoxicity against human HeLa cells assessed as reduction in cell viability measured after 48 hrs by CCK-8 assay; format: functional
[5] = Toxicity in BALB/c nude mouse xenografted with human HeLa cells assessed as change in body weight at 1 mg/kg, ip administered every 2 days for 18 days; format: organism-based; details: in vivo, 432 h, time 18 day
HeLa [6] = test: Antitumor activity against human HeLa cells xenografted in BALB/c nude mouse assessed as tumor growth inhibition at 1 mg/kg, ip administered every 2 days for 18 days by firefly luciferase based bioluminescence assay; format: functional, organism-based; details: time 18.0 day
[7] = Toxicity in BALB/c nude mouse xenografted with human HeLa cells assessed as induction of breathing difficulties at 1 mg/kg, ip administered every 2 days for 18 days; format: organism-based; details: in vivo, 432 h, time 18 day
HeLa [8] = test: Antimigratory activity against human HeLa cells at 0.22 uM measured upto 48 hrs by electron microscope based Wound healing assay relative to control; format: functional; details: time hrs <=48
[9] = Toxicity in BALB/c nude mouse xenografted with human HeLa cells assessed as induction of incontinence at 1 mg/kg, ip administered every 2 days for 18 days; format: organism-based; details: in vivo, 432 h, time 18 day
[10] = Toxicity in BALB/c nude mouse xenografted with human HeLa cells assessed as induction of fainting at 1 mg/kg, ip administered every 2 days for 18 days; format: organism-based; details: in vivo, 432 h, time 18 day
[11] = Toxicity in BALB/c nude mouse xenografted with human HeLa cells assessed as induction of convulsions at 1 mg/kg, ip administered every 2 days for 18 days; format: organism-based; details: in vivo, 432 h, time 18 day
HeLa [12] = test: Induction of morphological change in human HeLa cells assessed as cell shrinkage measured after 48 hrs by CCK-8 assay; format: functional, cell-based
Mus musculus [13] = test: Effect on DOX induced tissue damage in BALB/c nude mouse xenografted with human HeLa cells assessed as spleen enlargement at 80 mg/kg, ig administered every 2 days for 18 days by H and E staining; format: functional, organism-based
HeLa [14] = test: Downregulation of doxorubicin induced PI3K protein expression in human HeLa cells after 48 hrs by western blotting analysis; format: functional, cell-based
[15] = Toxicity in BALB/c nude mouse xenografted with human HeLa cells assessed as induction of fainting at 80 mg/kg, ig administered every 2 days for 18 days; format: organism-based; details: in vivo, po, 432 h, time 18 day
HeLa [16] = test: Downregulation of AKT protein expression in human HeLa cells after 48 hrs by western blotting analysis; format: functional, cell-based
[17] = Toxicity in BALB/c nude mouse xenografted with human HeLa cells assessed as induction of convulsions at 80 mg/kg, ig administered every 2 days for 18 days; format: organism-based; details: in vivo, po, 432 h, time 18 day
[18] = Toxicity in BALB/c nude mouse xenografted with human HeLa cells assessed as induction of incontinence at 80 mg/kg, ig administered every 2 days for 18 days; format: organism-based; details: in vivo, po, 432 h, time 18 day
[19] = Toxicity in BALB/c nude mouse xenografted with human HeLa cells assessed as potentiation of doxorubicin induced inflammation in myocardial tissue at 80 mg/kg, ig administered every 2 days for 18 days by H and E staining; format: organism-based, Myocardium/plasma; details: in vivo, po, 432 h, time 18 day
HeLa [20] = test: Downregulation of MMP-2 protein expression in human HeLa cells after 48 hrs by western blotting analysis; format: functional, cell-based
HeLa [21] = test: Antitumor activity against human HeLa cells xenografted in BALB/c nude mouse assessed as tumor growth inhibition at 80 mg/kg, ig for administered every 2 days for 18 days by firefly luciferase based bioluminescence assay; format: functional, organism-based; details: time 18.0 day
HeLa [22] = test: Downregulation of Bcl-2 protein expression in human HeLa cells after 48 hrs by western blotting analysis; format: functional, cell-based
Mus musculus [23] = test: Effect on DOX induced tissue damage in BALB/c nude mouse xenografted with human HeLa cells assessed as appearance of lesions in glomerular tubule at 80 mg/kg, ig for administered every 2 days for 18 days by H and E staining; format: functional, organism-based; details: Renal glomerulus, time 18.0 day
[24] = Toxicity in BALB/c nude mouse xenografted with human HeLa cells assessed as change in body weight at 80 mg/kg, ig administered every 2 days for 18 days; format: organism-based; details: in vivo, po, 432 h, time 18 day
HeLa [25] = test: Inhibition of potentiation of doxorubicin induced cell migration in human HeLa cells measured upto 48 hrs by electron microscope based Wound healing assay relative to control; format: functional; details: time hrs <=48
[26] = Toxicity in DOX induced BALB/c nude mouse xenografted with human HeLa cells assessed as induction of convulsions at 80 mg/kg, ig administered every 2 days for 18 days; format: organism-based; details: in vivo, po, 432 h, time 18 day
[27] = Toxicity in BALB/c nude mouse xenografted with human HeLa cells assessed as induction of breathing difficulties at 80 mg/kg, ig administered every 2 days for 18 days; format: organism-based; details: in vivo, po, 432 h, time 18 day
HeLa [28] = test: Downregulation of doxorubicin induced AKT protein expression in human HeLa cells after 48 hrs by western blotting analysis; format: functional, cell-based
HeLa [29] = test: Inhibition of hypoxia-inducible factor 1 alpha in DOX induced human HeLa cells assessed as downregulation of protein at 0.017 mmol/L after 48 hrs by Western blotting analysis; format: functional
HeLa [30] = test: Antimigratory activity against human HeLa cells at 0.017 mmol/L measured upto 48 hrs by electron microscope based Wound healing assay relative to control; format: functional; details: time hrs <=48
HeLa [31] = test: Downregulation of doxorubicin induced MMP-9 protein expression in human HeLa cells after 48 hrs by western blotting analysis; format: functional, cell-based
HeLa [32] = test: Antiproliferative activity against human HeLa cells assessed as inhibition of cell proliferation measured after 48 hrs by CCK-8 assay; format: functional, cell-based
HeLa [33] = test: Antitumor activity against DOX induced human HeLa cells xenografted in BALB/c nude mouse assessed as induction of apoptosis by measuring increase in TUNEL positive nuclei at 80 mg/kg, ig administered every 2 days for 18 days by TUNEL staining based assay; format: functional, organism-based; details: time 18.0 day
HeLa [34] = test: Induction of morphological change in human HeLa cells assessed as potentiation of doxorubicin induced reduction in size measured after 48 hrs in presence of doxorubicin by CCK-8 assay; format: functional, cell-based
HeLa [35] = test: Upregulation of BAX protein expression in human HeLa cells after 48 hrs by western blotting analysis; format: functional, cell-based
[36] = Decrease in MDR1 gene expression in DOX induced human HeLa cells by RT-PCR analysis; format: functional
Mus musculus [37] = test: Effect on DOX induced tissue damage in BALB/c nude mouse xenografted with human HeLa cells assessed as inflammatory cell infiltration in liver at 80 mg/kg, ig administered every 2 days for 18 days by H and E staining; format: functional, organism-based; details: time 18.0 day
[38] = Toxicity in DOX induced BALB/c nude mouse xenografted with human HeLa cells assessed as induction of incontinence at 80 mg/kg, ig administered every 2 days for 18 days; format: organism-based; details: in vivo, po, 432 h, time 18 day
[39] = Toxicity in DOX induced BALB/c nude mouse xenografted with human HeLa cells assessed as change in body weight at 80 mg/kg, ig administered every 2 days for 18 days; format: organism-based; details: in vivo, po, 432 h, time 18 day
HeLa [40] = test: Downregulation of doxorubicin induced Bcl-2 protein expression in human HeLa cells after 48 hrs by western blotting analysis; format: functional, cell-based
HeLa [41] = test: Upregulation of doxorubicin induced BAX protein expression in human HeLa cells after 48 hrs by western blotting analysis; format: functional, cell-based
HeLa [42] = test: Downregulation of MMP-9 protein expression in human HeLa cells after 48 hrs by western blotting analysis; format: functional, cell-based
HeLa [43] = test: Cytotoxicity against human HeLa cells assessed as potentiation of doxorubicin induced cell survival measured after 72 hrs by CCK-8 assay; format: functional
[44] = Toxicity in DOX induced BALB/c nude mouse xenografted with human HeLa cells assessed as induction of breathing difficulties at 80 mg/kg, ig administered every 2 days for 18 days; format: organism-based; details: in vivo, po, 432 h, time 18 day
[45] = Toxicity in DOX induced BALB/c nude mouse xenografted with human HeLa cells assessed as induction of fainting at 80 mg/kg, ig administered every 2 days for 18 days; format: organism-based; details: in vivo, po, 432 h, time 18 day
[46] = Decrease in MDR1 gene expression in human HeLa cells by qRT-PCR analysis; format: functional; details: dose 0.017 mol/L; time 48 hrs
HeLa [47] = test: Downregulation of doxorubicin induced MMP-2 protein expression in human HeLa cells after 48 hrs by western blotting analysis; format: functional, cell-based
HeLa [48] = test: Induction of morphological change in human HeLa cells assessed as potentiation of doxorubicin induced cell shrinkage measured after 48 hrs in by CCK-8 assay; format: functional, cell-based
HeLa [49] = test: Antitumor activity against human HeLa cells xenografted in BALB/c nude mouse assessed as potentiation of doxorubicin induced tumor growth inhibition at 80 mg/kg, ig administered every 2 days for 18 days by firefly luciferase based bioluminescence assay; format: functional, organism-based; details: time 18.0 day
HeLa [50] = test: Downregulation of PI3K protein expression in human HeLa cells after 48 hrs by western blotting analysis; format: functional, cell-based

In the case of `COc1cccc2c1C(=O)c1c(O)c3c(c(O)c1C2=O)C[C@@](O)(C(=O)CO)C[C@@H]3O[C@H]1C[C@H](N)[C@H](O)[C@H](C)O1` [DOXORUBICIN], the Activity [1] is reported as “Toxic”, the Activity [2] is reported as 8.69 and the Activity (HeLa [3]) is reported as “Active”. The Activity (HeLa [4]) was 2.67 µM, the Activity [5] was “Non-Toxic” and the Activity (HeLa [6]) was “inactive”. For the same molecule, the Activity [7] was “Non-Toxic”, the Activity (HeLa [8]) was 57.14% and the Activity [9] was “Non-Toxic”. For the same molecule, the Activity [10] was “Non-Toxic”, the Activity [11] was “Non-Toxic” and the Activity (HeLa [12]) was “Active”.

For `OC[C@H]1O[C@@H](OCCc2ccc(O)cc2)[C@H](O)[C@@H](O)[C@@H]1O` [SALIDROSIDE], the Activity (Mus musculus [13]) was “inactive”, the Activity (HeLa [14]) was “Active” and the Activity [15] was “Non-Toxic”. For the same molecule, the Activity (HeLa [16]) was “Active”, the Activity [17] was “Non-Toxic” and the Activity [18] was “Non-Toxic”. For the same molecule, the Activity [19] was “Non-Toxic”, the Activity (HeLa [20]) was “Active” and the Activity (HeLa [21]) was “Active”. The Activity (HeLa [22]) was “Active”, the Activity (Mus musculus [23]) was “inactive” and the Activity [24] was “Non-Toxic”. For the same molecule, the “inhibition (INH)” value (HeLa [25]) was 18.95%, the Activity [26] was “Non-Toxic” and the Activity [27] was “Non-Toxic”. For the same molecule, the Activity (HeLa [28]) was “Active”, the Activity (HeLa [29]) was “Active” and the Activity (HeLa [3]) was “Active”. The Activity (HeLa [30]) was 56.34%, the Activity (HeLa [31]) was “Active” and the Activity (HeLa [4]) was 0.183 µM. For the same molecule, the IC50 (HeLa [32]) was 10.5 µM, the Activity (HeLa [33]) was “Active” and the Activity (HeLa [34]) was “Active”. For the same molecule, the Activity (HeLa [35]) was “Active”, the Activity [36] was 2.76 and the Activity (Mus musculus [37]) was “inactive”. The Activity [38] was “Non-Toxic”, the Activity [39] was “Non-Toxic” and the Activity (HeLa [40]) was “Active”. The Activity (HeLa [41]) was “Active”, the Activity (HeLa [42]) was “Active” and the Activity (HeLa [43]) was >85%. For the same molecule, the Activity [44] was “Non-Toxic”, the Activity [45] was “Non-Toxic” and the Activity [46] was 1.65. The Activity (HeLa [12]) was “Active”, the Activity (HeLa [47]) was “Active” and the Activity (HeLa [48]) was “Active”. The Activity (HeLa [49]) was “Active” and the Activity (HeLa [50]) was “Active”.
